Assay results reported in patent publication US11103548B2, “Treatment of endometriosis, angiogenesis and/or endometrial lesion growth” (priority 2013, dated 2021).
No end group written: not given here. *: point of attachment. FITC = O=C1OC2(c3ccc(O)cc3Oc3cc(O)ccc32)c2ccc(NC(=S)*)cc21

What was measured:
SNCG = target: T1, SNCG (Homo sapiens, UniProt O76070); assay: co-immunoprecipitation (co-IP) of peptide with SNCG in MCF7-SNCG cells; assay type: binding; details: FITC tagged peptide, 8 hour after treatment, IP with anti-SNCG antibody, western blot with anti-FITC antibody
T1 construct: expressed in transfected cells; host or cells: MCF7-SNCG cells
Protocol: In vivo binding of ST011 to SNCG was examined in co-immunoprecipitation (co-IP) experiments (See FIG. 1). MCF7-SNCG cells were treated with FITC tagged […] (TAT)-ST011 (SEQ ID NO: 10) (lane 1 of FIG. 1), or FITC tagged YGRKKRRQRRR (TAT) alone (SEQ ID NO: 11) (lane 2 of FIG. 1) or no treatment control (lane 3 of FIG. 1). 8 hour after treatment, cell lysates were prepared and IP with anti-SNCG antibody was conducted. The presence of TAT-ST011 in SNCG IP complexes obtained from different treated cells was detected by western blot using anti-FITC antibody. […] Thus, FIG. 1 provides further evidence that SNCG is capable of immunoprecipitating TAT-ST011.

CRL 7566 cells = assay: intracellular permeability by fluorescent microscopy; assay type: cell-based; details: 20 micro molar FITC tagged peptide, after 6 hours
Protocol: To further examine the utility of the ST011 peptide as a therapeutic tool against angiogenesis, endometriosis and/or endometrial lesion growth, this peptide was further examined to observe its intracellular permeability in endometrial cells. For these experiments, GYGRKKRRQRRR (TAT) tagged GNSALHVASQHG (ST011) (SEQ ID NO: 10) and a control peptide GYGRKKRRQRRR (TAT CTL; SEQ ID NO: 11) were chemically synthesized. Each peptide contained FITC on its N-terminal end. These peptides were dissolved in 2% DMSO in PBS (pH 7.3) and applied directly on the Petri dish containing model cells (CRL 7566 or HUVECs) at required concentrations. Active internalization of peptide was observed using fluorescent microscopy. Three independent experiments were performed with duplicates of each condition. Model cell line for endometriosis, CRL 7566 cells (FIG. 2) received 20 micro molar FITC tagged TAT-ST011. After 6 hours cells were examined under fluorescent microscope.

HUVECs [1] = assay: WST-1 proliferation assay; assay type: cell-based; details: 600 ng/mL to 2.5 ng/mL, 48 hours of treatment, PBS control
Protocol: Endothelial cells are an integral part of blood vessels and the proliferation of endothelial cells is extremely important for angiogenesis. Therefore, to assess the role of α-synuclein in endothelial cell proliferation, HUVECs were plated and treated with various concentrations of TATST011 peptide GNSALHVASQHG (SEQ ID NO: 2) ranging from 600 ng/mL to 2.5 ng/mL using PBS as a control. In order to measure the effect of TAT-ST011 peptide GNSALHVASQHG (SEQ ID NO: 2) on HUVEC proliferation a WST-1 proliferation assay was performed.
HUVECs and epithelial cells were trypsinized, suspended in cultured medium and counted. Approximately 10,000 cells per well were seeded onto a 96 well plate. After allowing 24 hours for attachment in 37° C., the cells were treated with either 600 ng/mL, 300 ng/mL, 150 ng/mL, 5 ng/mL or 2.5 ng/mL of TAT-P12 using phosphate buffer saline (PBS, (Sigma Chemical Co., St. Louis, Mo., USA) as a control. The drug was suspended in RPMI. The plates were incubated in 37° C. for 24 or 48 hours after which 10 μL of WST-1 (Roche, Laval, QC, Canada) was added to each well. The plate was then incubated in 37° C. for another 4 hours. The absorbance of the wells was measured at a wavelength of 490 nm or at 510 nm.

HUVECs [2] = assay: in vitro angiogenic tube formation on gel matrix; assay type: cell-based
Protocol: Next, effect of TAT-ST011 peptide GNSALHVASQHG (SEQ ID NO: 2) on angiogenesis and tube formation of HUVEC cell was evaluated.
Extracellular matrix gel solution (Cell biolabs inc, San Diego, Calif., USA) had been thawed overnight at 4° C. and approximately […] of ECM gel solution was added to each well of a 96 well plate. The plate was incubated at 37° C. for 1 hour. HUVECs were trypsinized from culture and approximately 20,000 cells were added per well to the ECM containing 96 well plate. Each well was treated with […] of TAT-P12 at a concentration of 600 ng/mL, 300 ng/mL, 150 ng/mL, 5 ng/mL or 2.5 ng/mL. PBS was used as a control. The tube formation was visualized using a spinning disc confocal microscope and the images were stacked together using ImageJ.

[3] = test system: human endometriotic lesions; assay: mouse xenograft model of endometriosis, gross observation of lesion growth and vascularization; assay type: in vivo, mice; details: 20 mg/kg daily intraperitoneal for 21 days, necropsy one week after treatment, versus saline
Protocol: Gross observation of endometriotic lesion growth and vascularization in vivo was performed using an animal model. […] The peritoneal cavity of the mice was exposed using surgical tools and the endometriotic lesions were located manually.
A mouse xenograft model was developed using Rag2^−/−/I12rg^−/− double knockout mice on a BalbC background.
Since human estrogen is important for the growth of human endometriotic lesions the mice (n=12) had 60-day release 13-estradiol 17-acetate pellets (15 mg/pellet) (Innovative Research of America, Sarasota, Fla., USA) subcutaneously implanted. The mice were anaesthetized with isofluorane (Pharmaceutical Partners of Canada, Richmond Hill, ON, Canada).
Five days after the implantation of the estrogen 5 pellet, eutopic endometrium obtained from hysterectomy and endometrial biopsies performed at Kingston General Hospital was implanted in the peritoneal cavity of the mice. The obtained endometrium was cut into equal pieces and washed with PBS. The pieces of endometrium were kept in PBS on ice until the surgeries were performed. The mice were anaesthetized in an isofluorane chamber and a small incision was made in their abdomen. Two to three lesions were adhered on the left side of the peritoneal cavity using Vetbond tissue adhesive (3M, St. Paul, Minn., USA) and one or two pieces were dropped freely in the cavity. […]

fertility of the animals = assay: fertility by mating in humanized animal models of endometriosis after treatment; assay type: in vivo; details: mating after endometriosis is inhibited and treatment is stopped
Protocol: The ability of ST011 to inhibit endometriosis without effecting fertility can be confirmed in, for example, animal model of endometriosis. For these experiments, humanized animal models of endometriosis first can be treated with ST011 and once endometriosis is inhibited and treatment is stopped, fertility of the animals is tested by mating.

T1 sequence (O76070 whole entry): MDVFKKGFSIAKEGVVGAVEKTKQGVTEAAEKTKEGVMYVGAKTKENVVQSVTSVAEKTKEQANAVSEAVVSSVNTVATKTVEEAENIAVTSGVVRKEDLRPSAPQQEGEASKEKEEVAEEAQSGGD

Row | Substance | co-precipitation with SNCG (binding to SNCG) (SNCG) | internalization of peptide into endometrial cells (CRL 7566 cells) | proliferation of HUVECs (HUVECs [1]) | morphology of the HUVECs (cell lysis) (HUVECs [2]; 300 ng/mL and 600 ng/mL) | concentration that inhibited tube formation and also changed the morphology of the HUVECs (HUVECs [2]; HUVECs on gel matrix) [ng/mL] | tube formation / branching of HUVECs (HUVECs [2]; various concentrations (600 to 2.5 ng/mL), confocal microscopy) | endometriotic lesion growth [3] | vascularization of the lesions [3] | effect on fertility of the animals (fertility of the animals)
1 | GYGRKKRRQRRR (TAT) tagged GNSALHVASQHG (ST011) [TAT-ST011] | co-precipitate with SNCG | capable of going inside endometrial cells | dose dependently decreased the proliferation of HUVECs | caused the cells to lyse | ≥ 5 | dose dependent inhibition of tube formation | inhibited growth of lesion | prevented the formation of blood vessels to the lesions | –
2 | GYGRKKRRQRRR ({FITC}-GYGRKKRRQRRR) [TAT alone, control peptide … (TAT CTL, reference compound] | not TAT alone is found to co-precipitate with SNCG | – | – | – | – | – | – | – | –
3 | Ac-GNSALHVASQHG-NH2 [ST011 peptide, GNSALHVASQHG] | – | – | – | – | – | – | – | – | no effect of ST011 peptide on the fertility
